Results as given in publication PMC9367672, “In vitro differences in toddalolactone metabolism in various species and its effect on cytochrome P450 expression” (Pharmaceutical Biology, 2022).

Columns and labels:
CYP3A5 = experiment: Western blot of CYP3A5 protein expression in HepG2 cells; format: cell-based; conditions: 0, 10 and 50 μM, 24 h
Protocol: Hep G2 cells were seeded into 100 mm Petri dishes and treated with different concentrations of toddalolactone (0, 10 and 50 µmol/L) for 24 h. Total protein was extracted using RIPA lysis buffer containing proteinase inhibitor (BestBio, Shanghai, China). After the protein concentration was measured using a bicinchoninic acid (BCA) assay kit (Beyotime, Shanghai, China), samples were electrophoretically transferred to polyvinylidene difluoride (PVDF) membranes. After blocking with TTBS (0.5% Tween 20, 10 mM Tris-HCl, pH 7.5, 150 mM NaCl) containing 5% non-fat milk for 1 h at room temperature, the membrane was incubated with antibodies against β-Actin, CYP1A1, and CYP3A5 overnight at 4 °C. Then, membranes were washed with TBS (10 mM Tris-HCl, pH 7.5, 150 mM NaCl) containing 0.05% Tween 20 three times and further incubated with HRP-conjugated secondary antibodies against rabbit (for β-actin, CYP1A1 and CYP3A5) for 1 h at room temperature.

[1] = Enzyme kinetics of toddalolactone metabolism in human liver microsomes (oxidative metabolism and glucuronidation); format: in vitro ADME; conditions: human, liver microsomes, pH 7.4, HLMs, Vmax/Km
Protocol: (§1) The CYP reaction system (200 μL) consisted of 0.1 M potassium phosphate buffer (pH 7.4), an NADPH-generating system (1 mM NADPH, 10 mM G-6-P, 1 unit/mL G-6-PD, 4 mM MgCl2), and liver microsomes or recombinant human microsomes (supersomes). Each of the in vitro enzymatic assays using liver microsomes was linear with respect to incubation time and amount of protein. After a pre-incubation at 37 °C for 3 min, the reactions were initiated by adding NADP^+. After incubating for 60 min, the reactions were quenched by adding 200 μL of ice-cold acetonitrile. Samples were centrifuged at 18,000 g for 15 min at 4 °C and 10 μL of supernatant was analyzed using an HPLC system. NADPH or CYP enzyme sources were not used in the control group to ensure that the metabolic reactions were CYP- and NADPH-dependent. All incubation assays were completed in triplicate. The data are presented as mean ± standard deviation (SD).
(§2) In the UGT reaction system, liver microsomes were incubated in 200 μL of the reaction system containing 4 mM UDPGA, 5 mM MgCl2, 20 µg/mL alamethicin, and 50 mM Tris-HCl buffer (pH 7.4). After pre-incubation at 37 °C for 3 min, UDPGA was added to the mixture to initiate the reactions. The mixtures were incubated at 37 °C for 60 min, followed by the addition of 200 μL of cold methanol to terminate the reactions. After centrifugation at 18,000 g for 15 min, 10 μL of the supernatant was analyzed by HPLC.
(§3) The enzyme kinetics of toddalolactone in oxidative metabolism and glucuronidation were determined by incubating liver microsomes (0.2 mg/mL) or CYPs (15 nM) with different concentrations of toddalolactone (1–200 μM). The kinetic parameters including Km and Vmax were obtained by fitting the experimental data to the Michaelis–Menten equation (Equation (1)), biphasic kinetics equation (Equation (2)), or substrate inhibition equation (Equation (3)) (He et al. [2018]), and the results were graphically represented on Eadie–Hofstee plots. The in vitro intrinsic clearance (CLint) was calculated based on the Vmax/Km ratio. Metabolites were quantified using the standard curve for toddalolactone because of the absence of metabolite standards. All incubations were repeated in three independent experiments. Kinetic constants were expressed with mean ± SD: (1) V=Vmax×[S]/Km+[S] (2) V=Vmax1×[S]/Ks1+[S]+Vmax2×[S]/Ks2+[S] (3) V=Vmax×[S]/Ks+[S]+[S]^2/Ksi where v is the rate of reaction, Vmax is the estimated maximum velocity, [S] is the substrate concentration, and Km is the affinity constant of the substrate; Vmax1 and Vmax2 represent the estimated maximum velocity of the two metabolic phases; Ks1 and Ks2 represent the affinity constants for two metabolic phases; Ks and Ksi are the substrate affinity and inhibition constants, respectively.
(§4) The enzyme kinetics in oxidative metabolism and glucuronidation of toddalolactone were studied, and preliminary experiments were performed to ensure that metabolites were formed in the linear range of both reaction time and microsomal protein concentration. The metabolite with the largest peak area was used to calculate the kinetic parameter values (Km, Vmax and CLint). Based on the results of toddalolactone metabolism in different species, the kinetic parameter values in RLMs, DLMs, MLMs, HLMs, RAMs, MIMs, PLMs, CYP1A1 and CYP3A5 were calculated using P4, P4, P4, P4, P2, P2, P4, P4 and P4 data in oxidative metabolism, respectively. In the glucuronidation reaction, the kinetic parameter values in RLMs, MLMs, HLMs, RAMs and PLMs were calculated using P5, P6, P6, P6 and P5 data, respectively.

HLMs = experiment: as above; format: in vitro ADME; conditions: HLMs; for V max: toddalolactone 1–200 μM
Protocol: as §1, §2, §3, §4

[2] = Enzyme kinetics of toddalolactone metabolism in mini pig liver microsomes (oxidative metabolism and glucuronidation); format: in vitro ADME; conditions: pig, Vmax/Km
Protocol: as §1, §2, §3, §4

PLMs = experiment: as above; format: in vitro ADME; conditions: for V max: toddalolactone 1–200 μM
Protocol: as §1, §2, §3, §4

[3] = Enzyme kinetics of toddalolactone metabolism in rat liver microsomes (oxidative metabolism and glucuronidation); format: in vitro ADME; conditions: rat, liver microsomes, pH 7.4, RLMs, Vmax/Km
Protocol: as §1, §2, §3, §4

RLMs = experiment: as above; format: in vitro ADME; conditions: RLMs; for V max: toddalolactone 1–200 μM
Protocol: as §1, §2, §3, §4

[4] = Enzyme kinetics of toddalolactone metabolism in monkey liver microsomes (oxidative metabolism and glucuronidation); format: in vitro ADME; conditions: monkey, liver microsomes, pH 7.4, MLMs, Vmax/Km
Protocol: as §1, §2, §3, §4

MLMs = experiment: as above; format: in vitro ADME; conditions: MLMs; for V max: toddalolactone 1–200 μM
Protocol: as §1, §2, §3, §4

[5] = P450-catalyzed oxidation, P4 formation
[6] = glucuronide metabolism, P6 formation
[7] = glucuronide metabolism, P5 formation

COc1cc2oc(=O)ccc2c(OC)c1C[C@@H](O)C(C)(C)O [toddalolactone]
protein expression of CYP3A5 (CYP3A5): did not show any significant change | microsomal CLint [1, 5]: 0.14 µL/min/mg | microsomal CLint [1, 6]: 0.75 µL/min/mg | K m (HLMs; [5]): 244.63 ± 78.99 µM | V max (HLMs; [5]): 35.07 ± 7.16 pmol/min/mg protein | K m (HLMs; [6]): 66.33 ± 20.46 µM | V max (HLMs; [6]): 50.16 ± 8.75 pmol/min/mg protein | microsomal CLint ([2]; liver microsomes, pH 7.4, PLMs, P450-catalyzed oxidation, P4 formation): 0.69 µL/min/mg | microsomal CLint ([2]; mini pig liver microsomes (PLMs), UGT reaction system, pH 7.4, glucuronide metabolism, P5 formation): 0.36 µL/min/mg | K m (PLMs; [5]): 135.36 ± 32.39 µM | V max (PLMs; [5]): 94.24 ± 11.61 pmol/min/mg protein | K m (PLMs; [7]): 93.28 ± 22.35 µM | V max (PLMs; [7]): 34.12 ± 3.62 pmol/min/mg protein | microsomal CLint [3, 5]: 1.31 µL/min/mg | microsomal CLint [3, 7]: 0.69 µL/min/mg | K m (RLMs; [5]): 121.13 ± 31.89 µM | V max (RLMs; [5]): 158.26 ± 20.52 pmol/min/mg protein | K m (RLMs; [7]): 79.11 ± 22.56 µM | V max (RLMs; [7]): 55.89 ± 6.61 pmol/min/mg protein | microsomal CLint [4, 5]: 0.63 µL/min/mg | microsomal CLint [4, 6]: 1.21 µL/min/mg | K m (MLMs; [5]): 255.67 ± 58.29 µM | V max (MLMs; [5]): 161.4 ± 25.73 pmol/min/mg protein | K m (MLMs; [6]): 154.51 ± 42.46 µM | V max (MLMs; [6]): 187.53 ± 27.77 pmol/min/mg protein
